Patent US9238631B2, “Radiolabeled amino acids for diagnostic imaging” (PIRAMAL IMAGING SA, priority 2011, dated 2016)

Legend:
[1] = tested on: NCI-H460 (human NSCLC) cells; assay: Cell uptake studies: 30 min uptake in H460 cells; assay type: cell-based; conditions: 0.25 MBq tracer, PBS 0.1% BSA
Procedure: For determination of the biological activity, the F18 labeled derivatives were used as tracers in cell uptake experiments. NCI-H460 (human NSCLC) cells, grown adherently in 48 well plates were used for these uptake-experiments. Approximately 100.000 cells were incubated with 0.25 MBq of the tracers for 30 min in PBS-buffer containing 0.1% BSA. After this time, the cell-bound radioactivity was determined using a γ-counter.

[2] = tested on: NCI-H460 tumor; assay: PET imaging in NCI-H460 tumor bearing nude-mice; assay type: in vivo; conditions: PET at 60 min p.i., approx. 10 MBq
Procedure: a) [^18F]-1 was examined in NCI-H460 tumor bearing nude-mice using PET-imaging. Approx. 10 MBq of the tracer was injected into the animals and PET images were acquired at 60 min p.i. for 10 minutes. The H460-tumor was very well visible in the images with 3.6% ID/g as was determined by region of interest (ROI) analysis. Except of some uptake into the bladder due to the renal excretion, no uptake into non target tissues was observed.
b) [^18F]-12 was examined in the same animal model in mice as described above. Approx. 10 MBq was injected into the animals and PET images were obtained at 60 min p.i. for 10 min. The NCI-H460 tumor was very well visible and uptake of 2.7% ID/g into the tumor was calculated by ROI analysis. Except of some uptake into the gallbladder due to a partial hepatobiliary clearance of this derivative, the majority of activity is excreted renally, resulting in a strong PET signal from the bladder. No uptake in other non-target tissues was observed.

[3] = tested on: NCI-H460 tumor; assay: PET imaging in NCI-H460 tumor bearing nude-rats; assay type: in vivo
In short: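 NCI-H460 cells were inoculated into the right flank of nude rats (RH-Foxn1 nu/nu) 8 to 10 days before imaging. PET images were acquired for 10 minutes at 60 min after injection of approximately 10 MBq tracer. Tumor, liver and kidney activity was derived by ROI analysis as %ID/g.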

N[C@@H](CCC(Cc1ccc(OCC[18F])cc1)C(=O)O)C(=O)O (stereo partly drawn) [[^18F]-12] [(2S)-2-Amino-5-[4-(2-[^18F]fluoroethoxy)benzyl]hexanedioic acid]
30 min uptake into H460 cells [%/100.000 cells] [1]: 10.5 ± 0.3 %/100.000 cells | H460 tumor uptake by ROI analysis [2]: 2.7 % ID/g | Kidney (% ID/g at 1 h p.i.) ([3]; PET ROI analysis, 1 h p.i.): 0.9 % ID/g | Liver (% ID/g at 1 h p.i.) ([3]; PET ROI analysis, 1 h p.i.): 0.8 % ID/g | Tumor (Max % ID/g at 1 h p.i.) ([3]; PET ROI analysis, 1 h p.i.): 2.2 % ID/g | Tumor (Mean % ID/g at 1 h p.i.) ([3]; PET ROI analysis, 1 h p.i.): 0.9 % ID/g | H460 tumor uptake by ROI analysis ([3]; PET at 60 min after injection, approx. 10 MBq): 0.9 % ID/g
